# Assay: Pharmacokinetic evaluation of oral thin films in dogs (midazolam in plasma, LC-MS/MS)
# Type: in vivo, Marshall Beagle dogs
# Conditions: from cyclodextrin-containing films
# Description: To investigate the local tolerability and pharmacokinetics of the four oral thin films prepared according to Example 1, the oral thin films containing 3.0 mg of midazolam HCl (corresponding to 2.7 mg of midazolam free base) were subsequently applied to 6 non-naïve Marshall Beagle dogs (3 male weighing 8.6-11 kg and 3 female weighing 7.5-8.1 kg) with at least 3 days washout phase between the treatments. DORMICUM® 7.5 mg tablets and a Midazolam 5 mg/mL solution for injection/infusion (obtained from B. Braun) were used as reference. The dogs were fastened before dose administration and during the period of the experiment. On the days of treatment, the animals were offered their first daily meal after collection of the blood sample 2 hours after dose, and the second meal of the day was given after collection of the blood sample 6 hours after dose.
# Blood samples were taken from the dogs before the treatment, and 2, 5, 10, 30, 60, 120, and 360 minutes after the dose administration. Blood samples of approximately 2 mL were collected from the saphenous vein. […]
# The concentration of midazolam in the blood samples was determined using validated liquid chromatography-mass spectrometry (LC-MS/MS) methods. […] The concentration of analytes in unknown samples was calculated using the analyte/internal standard area ratios. […] It was well mixed and the samples analyzed by using LC-MS/MS.
structure (smiles),measurement,value
"Cc1ncc2n1-c1ccc(Cl)cc1C(c1ccccc1F)=NC2 [midazolam, 8-chloro-6-(2-fluoropheny)-1-methyl-4H-imidazo[1,5-α][1,4]benzodiazepine]",time within which midazolam is absorbed through the oral mucosa,≤ 10 min

# — US20260284075A1, “UNIT DOSAGE COMPOSITION COMPRISING MIDAZOLAM” (B. Braun Melsungen AG, priority 2023, published 2026)
